Reference: patent US5674878A, “Anellated dihydropyridines and the use thereof for the production of pharmaceutical preparations” (Boehringer Ingelheim KG, priority 1992, dated 1997)

What follows are compounds tested on unselective cation channels (UCC) (assay: Thapsigargin (0.1 μM) stimulated Ca^2+ entry through unselective cation channels in fura-2-charged RBL-hm 1 cells). Details: RBL-hm 1 cells, Thapsigargin (0.1 μM) stimulation, 10 μM test substance (Table 21).
Type: cell-based, rat
From the text: As a measurement of the cell activation or as a measurement of the inhibition thereof by UCC blockers, the kinetics of the cytoplasmic calcium ion concentration in fura-2-charged cells is quantified fluorometrically using the method described by GRYNKIEWICZ et al. (1985).
Consequently the Ca^2+ -stores are rapidly depleted. As described by J. PUTNEY (Calcium, 11, 611-624, 1990) the depletion of these stores constitutes the physiological stimulation for opening up unselective cation channels in the cell membrane. The result of this is a massive influx of Na^+ and Ca^2+ into the cell. Because of these properties, Thapsigargin is suitable as an indirect stimulator for agonist- and IP3-independent opening up of the unselective cation channels.
The functional endothelin antagonism of the substances according to the invention is mediated through a blockade of the unselective cation channels. Consequently, detection of a functional Thapsigargin-antagonism on RBL-hm1 cells is also a suitable screening method for functional endothelin antagonists.
For screening purposes, fura-2-charged adhesive RBL-hm 1 cells are stimulated with 0.1 μM Thapsigargin in a Ca^2+ -free incubation medium. After 4 minutes, extracellular Ca^2+ is restored to a concentration of 1.5 mM and, using the fura-2-fluorescence, the excessive increase in the cytoplasmic Ca^2+ -concentration caused by a massive transmembranal Ca^2+ -entry through unselective cation channels is recorded.
This entry is to be inhibited solely by unselective cation channel blockers in a dosage-dependent manner. Neither conventional calcium antagonists nor specific blockers of agonists which stimulate the IP3 -turnover are able to inhibit the transmembranal Ca^2+ -entry triggered indirectly by Thapsigargin. The compounds of the present invention are distinguished by their inhibition of UCC.
The fluorometric calcium measurement in the cytoplasm of individual adhering RBL-hm1 cells is carried out analogously to the method described by KUDO and OGURA (1986) for neuronal cells. An AXIOVERT 35 fluorescence microscope made by ZEISS is used in conjunction with an imaging system made by HAMAMATSU, consisting of the ICMS-image processing system, residual light camera with control unit and image intensifier DVS 3000.
The kinetics of the cytoplasmic Ca^2+ -concentration is recorded continuously as a concentration/time curve after the cell activation stimulated by Thapsigargin (0.1 μM). The curves of two activated cell cultures are compared in the presence and absence of 10 μM test substance. The area under these curves (area under the curve=AUC) is integrated and recorded as a measurement of cell activation. The inhibitory potency of the UCC-blockers tested is determined using the following equation: [formula] %H=the percentage inhibition of the calcium entry through unselective cation channels which is stimulated and inhibited by 10 μM of test substance.
AUCinh =area under the curve recorded in the presence of the stimulant plus 10 μM inhibitory test substance.
AUCcontrol =area under the curve which is recorded only after the addition of the stimulant.
The percentage inhibition of UCC after Thapsigargin stimulation (0.1 μM Thapsigargin) in RBL-hm 1 cells is given. The uniform concentration of the test substances is 10^-5 mol).
In the case of `CCOc1ccccc1CCNC(=O)C(=C1NCCc2cc(OC)c(OC)cc21)c1ccccc1` (single isomer, unassigned) [K], the “% Inhibition” value is reported as 76.31%. In the case of `COc1cc2c(cc1OC)C(=C(C(=O)NCCc1c(OC)cccc1OC)c1ccccc1)NCC2` (single isomer, unassigned) [L], the “% Inhibition” value is reported as 53.14%. In the case of `COc1cc2c(cc1OC)C(C(C(=O)N(CCc1ccc(OC)c(OC)c1OC)CCc1ccc(OC)c(OC)c1OC)c1ccccc1)=NCC2` (stereo not shown) [38a (oxalate)], the “% Inhibition” value is reported as 52.64%.

Same assay, conditions: Table 13; 10 μM test substance
`NS(=O)(=O)c1ccc(CCNC(=O)C(=C2NCCc3ccsc32)c2ccccc2)cc1` was tested, and the “% Inhib.” value was 50.64%. With `COc1ccc(CCNC(=O)C(C2=NCCc3ccsc32)c2ccccc2)cc1` (stereo not shown) the “% Inhib.” value was 67.73%. With `COc1ccc(CCNC(=O)C(=C2NCCc3ccsc32)c2ccccc2)cc1` the “% Inhib.” value was 65.50%. For `CCOc1ccccc1CCNC(=O)C(C1=NCCc2ccsc21)c1ccccc1` (stereo not shown), the “% Inhib.” value was 24.03%. `O=C(NCCc1cccc(C(F)(F)F)c1)C(C1=NCCc2ccsc21)c1ccccc1` (stereo not shown) was tested, and the “% Inhib.” value was 43.49%. For `O=C(NCCc1ccc(Cl)cc1)C(C1=NCCc2ccsc21)c1ccccc1` (stereo not shown), the “% Inhib.” value was 15.26%. With `O=C(NCCc1ccc(Cl)cc1)C(=C1NCCc2ccsc21)c1ccccc1` the “% Inhib.” value was 26.54%. `O=C(NCCc1ccsc1)C(C1=NCCc2ccsc21)c1ccccc1` (stereo not shown) was tested, and the “% Inhib.” value was 0.0%. For `O=C(NCCc1ccsc1)C(=C1NCCc2ccsc21)c1ccccc1`, the “% Inhib.” value was 67.75%.

Same assay, conditions: Table 14; 10 μM test substance
For `COc1cc2c(cc1OC)C(C(C(=O)NCCc1ccc(S(N)(=O)=O)cc1)c1ccccc1)=NCC2` (stereo not shown), the “% Inhib.” value was 79.17%. In the case of `COc1cc2c(cc1OC)C(C(C(=O)NCCCc1ccccc1)c1ccccc1)=NCC2` (stereo not shown), the “% Inhib.” value is reported as 73.55%. With `COc1cc2c(cc1OC)C(C(C(=O)NCCC1CCCN1C)c1ccccc1)=NCC2` (stereo not shown) the “% Inhib.” value was 60.82%. `COc1cc2c(cc1OC)C(C(C(=O)NC(C)CCc1ccccc1)c1ccccc1)=NCC2` (stereo not shown) was tested, and the “% Inhib.” value was 82.76%. With `COc1ccc(CNC(=O)C(C2=NCCc3cc(OC)c(OC)cc32)c2ccccc2)cc1OC` (stereo not shown) the “% Inhib.” value was 50.90%. With `COc1ccc(CNC(=O)C(C2=NCCc3cc(OC)c(OC)cc32)c2ccccc2)c(OC)c1` (stereo not shown) the “% Inhib.” value was 56.20%. In the case of `COc1cc2c(cc1OC)C(C(C(=O)N(CCCc1ccccc1)CCCc1ccccc1)c1ccccc1)=NCC2` (stereo not shown), the “% Inhib.” value is reported as 22.39%. For `COc1cc2c(cc1OC)C(C(C(=O)NCCc1ccc(C)cc1)c1ccccc1)=NCC2` (stereo not shown), the “% Inhib.” value was 79.60%. `COc1cc2c(cc1OC)C(C(C(=O)NCCc1ccc(Cl)c(OCc3ccccc3)c1)c1ccccc1)=NCC2` (stereo not shown) was tested, and the “% Inhib.” value was 36.71%. For `COc1cc2c(cc1OC)C(C(C(=O)NCC1CCCCC1)c1ccccc1)=NCC2` (stereo not shown), the “% Inhib.” value was 30.87%.

Same assay, conditions: Table 15; 10 μM test substance
For `COc1cc2c(cc1OC)C(C(C(=O)NCCCc1ccc(C(C)(C)C)cc1)C1CCCCC1)=NCC2` (stereo not shown), the “% Inhib.” value was 84.43%.

Same assay, conditions: Table 16; %inhibition, 10 μM test substance
`COc1ccc2c(c1)CCN=C2C(C(=O)NCCc1cccc(C(F)(F)F)c1)c1ccccc1` (stereo not shown) was tested, and the “%” value was 30.41%. In the case of `O=C(NCCc1cccc(C(F)(F)F)c1)C(C1=NCCc2cc(OCc3ccccc3)ccc21)c1ccccc1` (stereo not shown), the “%” value is reported as 14.65%. For `Cc1cc2c(cc1OCc1ccccc1)CCN=C2C(C(=O)NCCc1cccc(C(F)(F)F)c1)c1ccccc1` (stereo not shown), the “%” value was 49.03%. `COc1cc2c(cc1OCc1ccccc1)CCN=C2C(C(=O)NCCc1cccc(C(F)(F)F)c1)c1ccccc1` (stereo not shown) was tested, and the “%” value was 31.8%. In the case of `COc1cc2c(cc1OCc1ccccc1)C(C(C(=O)NCCc1cccc(C(F)(F)F)c1)c1ccccc1)=NCC2` (stereo not shown), the “%” value is reported as 22.9%. With `COc1cc2c(cc1C)C(C(C(=O)N(Cc1ccccc1)Cc1ccccc1)c1ccccc1)=NCC2` (stereo not shown) the “%” value was 58.3%.

Same assay, conditions: Table 17; 10 μM test substance
`COc1cc(N=[N+]=[N-])c(I)cc1CCNC(=O)C(C1=NCCc2cc(OC)c(OC)cc21)c1ccccc1` (stereo not shown) was tested, and the “percent inhibition of Ca2+ entry” value was 36.95%. With `COc1ccccc1CCNC(=O)C(C1=NCCc2cc(OC)c(OC)cc21)c1ccccc1` (stereo not shown) the “percent inhibition of Ca2+ entry” value was 69.7%. For `COc1ccc(CCN(CC(C)C)C(=O)C(C2=NCCc3cc(OC)c(OC)cc32)c2ccccc2)cc1OC` (stereo not shown), the “percent inhibition of Ca2+ entry” value was 12.82%. With `COc1cc2c(cc1OC)C(C(C(=O)NCCOc1cccc3ccccc13)c1ccccc1)=NCC2` (stereo not shown) the “percent inhibition of Ca2+ entry” value was 59%. For `COc1cc2c(cc1OC)C(C(C(=O)NC(C)COc1c(C)cccc1C)c1ccccc1)=NCC2` (stereo not shown), the “percent inhibition of Ca2+ entry” value was 72.18%. With `COc1cccc(OCCN2CCN(C(=O)C(C3=NCCc4cc(OC)c(OC)cc43)c3ccccc3)CC2)c1` (stereo not shown) the “percent inhibition of Ca2+ entry” value was 41.06%. With `COc1cc2c(cc1OC)C(C(C(=O)N1CCN(c3nc(N)c4cc(OC)c(OC)cc4n3)CC1)c1ccccc1)=NCC2` (stereo not shown) the “percent inhibition of Ca2+ entry” value was 7.77%. `COc1cccc(OCCNC(=O)C(C2=NCCc3cc(OC)c(OC)cc32)c2ccccc2)c1` (stereo not shown) was tested, and the “percent inhibition of Ca2+ entry” value was 45.26%. With `COc1ccc2c(c1)CCN(C(=O)C(C1=NCCc3cc(OC)c(OC)cc31)c1ccccc1)C2` (stereo not shown) the “percent inhibition of Ca2+ entry” value was 33.06%. In the case of `COc1cc2c(cc1OC)C(C(C(=O)NC(C)(C)C)c1ccccc1)=NCC2` (stereo not shown), the “percent inhibition of Ca2+ entry” value is reported as 81.60%. For `COc1cc2c(cc1OC)C(C(C(=O)NCC(C)(C)C)c1ccccc1)=NCC2` (stereo not shown), the “percent inhibition of Ca2+ entry” value was 81.51%.

Same assay, conditions: Table 18; 10 μM test substance
With `COc1cc2c(cc1OC)C(C(C(=O)N(CCc1ccc(OC)c(OC)c1OC)CCc1ccc(OC)c(OC)c1OC)c1ccccc1OC)=NCC2` (stereo not shown) the “percent inhibition of Ca2+ entry” value was 41.8%. With `COc1cccc(C(C(=O)N(CCc2ccc(OC)c(OC)c2OC)CCc2ccc(OC)c(OC)c2OC)C2=NCCc3cc(OC)c(OC)cc32)c1` (stereo not shown) the “percent inhibition of Ca2+ entry” value was 24.3%. For `COc1ccc(C(C(=O)N(CCc2ccc(OC)c(OC)c2OC)CCc2ccc(OC)c(OC)c2OC)C2=NCCc3cc(OC)c(OC)cc32)cc1` (stereo not shown), the “percent inhibition of Ca2+ entry” value was 73.7%. With `COc1ccc(C(C(=O)N(CCc2ccc(OC)c(OC)c2OC)CCc2ccc(OC)c(OC)c2OC)C2=NCCc3cc(OC)c(OC)cc32)cc1OC` (stereo not shown) the “percent inhibition of Ca2+ entry” value was 53.1%. In the case of `COc1cc2c(cc1OC)C(C(C(=O)N(CCc1ccc(OC)c(OC)c1OC)CCc1ccc(OC)c(OC)c1OC)c1ccccc1C)=NCC2` (stereo not shown), the “percent inhibition of Ca2+ entry” value is reported as 68.22%. In the case of `COc1cc2c(cc1OC)C(C(C(=O)N(CCc1ccc(OC)c(OC)c1OC)CCc1ccc(OC)c(OC)c1OC)c1ccc(Cl)cc1Cl)=NCC2` (stereo not shown), the “percent inhibition of Ca2+ entry” value is reported as 30.79%. `COc1cc2c(cc1OC)C(C(C(=O)N(CCc1ccc(OC)c(OC)c1OC)CCc1ccc(OC)c(OC)c1OC)c1ccc(F)cc1)=NCC2` (stereo not shown) was tested, and the “percent inhibition of Ca2+ entry” value was 54.30%. `COc1cc2c(cc1OC)C(C(C(=O)N(CCc1ccc(OC)c(OC)c1OC)CCc1ccc(OC)c(OC)c1OC)c1ccc(N=[N+]=[N-])cc1)=NCC2` (stereo not shown) was tested, and the “percent inhibition of Ca2+ entry” value was 61.3%. `COc1cc2c(cc1OC)C(C(C(=O)N(CCc1ccc(OC)c(OC)c1OC)CCc1ccc(OC)c(OC)c1OC)c1ccc(N=[N+]=[N-])c(I)c1)=NCC2` (stereo not shown) was tested, and the “percent inhibition of Ca2+ entry” value was 5.81%. In the case of `COc1cc2c(cc1OC)C(C(CC1CCC1)C(=O)N(CCc1ccc(OC)c(OC)c1OC)CCc1ccc(OC)c(OC)c1OC)=NCC2` (stereo not shown), the “percent inhibition of Ca2+ entry” value is reported as 56.0%.

Same assay, conditions: Table 19; 10 μM test substance
In the case of `COc1ccccc1CCNC(=O)C(C1=NCCc2cc(OC)c(OC)cc21)c1ccc(N=[N+]=[N-])cc1` (stereo not shown), the “percent inhibition of Ca2+ entry” value is reported as 50.58%.

Same assay, conditions: Table 20; 10 μM test substance
For `Cc1cc2c(cc1OCc1ccccc1)CCN=C2C(C(=O)NCCc1cccc(C(F)(F)F)c1)c1ccccc1` (stereo not shown), the “percent inhibition of Ca2+ entry” value was 49.03%.
